The source made the active and inactive calls. The rule behind the calls is not given here.
Key:
Assay type in all cases: cell-based
IMR-32 [1] = test: Agonist activity at GABA type-A receptor in human IMR32 cells at 1 mM after 2 hrs by Epic DMR assay
IMR-32 [2] = test: Agonist activity at GABA type-A receptor in human IMR32 cells at 100 uM after 2 hrs by Epic DMR assay
[3] = Antagonist activity against GABA type-A receptor in human IMR32 cells assessed as GABA-induced response preincubated for 10 mins followed by GABA addition measured at 140 mins by Epic DMR assay
[4] = Agonist activity at GABA type-A receptor in human IMR32 cells after 2 hrs by Epic DMR assay; settings: IMR-32, 2 h

SMILES: Oc1noc2c1CCNC2
- Activity (IMR-32 [1]): Active

SMILES: NCC(CC(=O)O)c1ccc(Cl)cc1 (racemic)
- Activity (IMR-32 [2]): inactive

SMILES: COc1ccc(-c2ccc(=N)n(CCCC(=O)O)n2)cc1 [GABAZINE]
- IC50 ([3]; IMR-32, read-out: IC50): 7.38 µM
- IC50 ([3]; IMR-32, read-out: pIC50 (converted)): 4.57 µM

SMILES: NCc1cc(O)no1 [MUSCIMOL]
- EC50 ([4]; read-out: EC50): 2.04 µM
- EC50 ([4]; read-out: pEC50 (converted)): 1.7 µM
- Activity (IMR-32 [1]): Active
